# In patent US20050059610A1 (priority 2003, published 2005):
# “Also recorded” adds a separate entry of the source.
# Assays:
# [1] = tested on: endotoxin-induced sepsis; assay: Lethal endotoxemia: survival, HSP expression, cytokine release; type: in vivo, rat; settings: GLN concurrently with lethal doses of endotoxin
# Experimental: Evaluation of pro-inflammatory cytokine release was also assessed following endotoxemia.
# [2] = tested on: sepsis (CLP); assay: CLP with or without quercetin (HSP 70 inhibitor): survival, lung HSP/NOS, metabolism, TNF; type: in vivo, Sprague-Dawley rats
# Experimental: Methods: Male Sprague-Dawley rats were divided into 5 groups. Two groups were treated with 400 mg/kg of quercetin (Q) IP (HSP 70 inhibitor) 6 hours pre-CLP. […] The final group (CONT, n=6) received no treatment. Five-day survival was monitored. In separate studies, lung was harvested 24-hours post-CLP and tissue metabolism analyzed by 31P- and 1H-MRS. A final study analyzed blood for TNF- at 6 hours post-CLP and lung tissue 6 hours post-CLP for HSP-70, iNOS, eNOS, and activated heat shock factor-1 (HSF-1).
# [3] = tested on: polymicrobial sepsis and peritonitis (CLP); assay: CLP peritonitis/polymicrobial sepsis, GLN 30 minutes after induction, with or without quercetin; type: in vivo, rat
# From the text: Cecal ligation and puncture (CLP) in the rat was chosen as the appropriate model.
# [4] = tested on: cardiomyocytes; assay: Ischemia/reperfusion injury of isolated cardiomyocytes; type: cell-based
# Experimental: Spontaneously contracting cardiomyocytes were studied.
# Cardiomyocytes were allowed to equilibrate at baseline normoxic conditions for 60 minutes.
# [5] = tested on: myocardial tissue metabolism; assay: Rat working heart model, myocardial tissue metabolism by 1H-/31P-MRS; type: in vivo
# Experimental: The tissue was analyzed for ATP, ADP, and ATP/ADP ratio via ^31P-magnetic resonance spectroscopy (MRS) and for creatine/phosphocreatine content via ^1H-magnetic resonance spectroscopy (MRS). […] The tissue was analyzed for lactate content via ^1H-MRS. […] Glutamine pretreatment enhances myocardial tissue content (glutamine, glutamate, and glucose) content following myocardial I/R injury in the rat. […] Glutamate is a vital tissue substrate following myocardial injury and it is beneficial that a single dose of […]/R injury can preserve tissue levels of this key substrate following injury. […] This key finding confirms that it is possible to enhance myocardial tissue substrate content (particularly glutamate) with a (pre-operative) remote GLN pre-treatment dose. […] Substrates were analyzed via ^1H-MRS. […] The tissue was analyzed for myocardial tissue reduced glutathione content via ^1H-magnetic resonance spectroscopy (MRS). […] Glutamine pretreatment preserves myocardial NAD (+)/NADH content following myocardial I/R injury in the rat. […] The tissue was analyzed for NAD (+)/NADH content via ^31P-magnetic resonance spectroscopy (MRS). […] NAD(+)/NADH was analyzed via […]. (**-p<0.01 versus pre-ischemic values, ##-p<0.01 versus post-ischemic LR control tissue via ANOVA.)
# [6] = tested on: infection in patients following bone marrow transplantation; settings: parenteral nutritional program supplemented with glutamine (Calder and Yapoob 1999); cited from earlier work
# [7] = tested on: onset of ischemia (1 mm of ST depression); assay: Exercise stress test in patients with chronic stable angina, crossover trial; type: in vivo, human; settings: oral GLN 80 mg/kg 40 minutes prior to exercise stress test; 17 patients; vs placebo
# From the text: Patients were then crossed over following a one-week interval.
# [8] = GLN 0.75 g/kg IV one-hour post-CLP, 6 hours post-CLP
# [9] = GLN 30 minutes after induction of peritonitis and sepsis
structure (smiles),measurement,setting,value
"NC(=O)CC[C@H](N)C(=O)O [GLN, Glutamine]",HSP 70 and 23 following lethal endotoxemia,[1],enhanced
same,mortality following lethal endotoxemia,[1],reduced mortality
same,lung NAD+,"[2]; 24-hours post-CLP, MRS",improved
same,lung lactate accumulation,"[2]; 24-hours post-CLP, MRS",attenuated
same,lung eNOS,[2]; 6 hours post-CLP,enhanced
same,lung iNOS,[2]; 6 hours post-CLP,attenuated
same,plasma TNF- expression,[2]; 6 hours post-CLP,attenuated
same,5-day survival,[2]; GLN 0.75 g/kg IV one-hour post-CLP,significant improvement
same,lung HSF-1 activation,[2]; [8],enhanced
same,lung HSP70 expression,[2]; [8],enhanced
same,serum HSP 70 expression,"[3]; CLP model, rat",markedly enhanced; also recorded: approximate four-fold increase
same,deficient lung HSP 70 expression,[3]; [9],markedly enhanced
same,lung HSF-1 activation,[3]; [9],markedly enhanced
same,NAD+/NADH levels in lung tissue,[3]; following sepsis and peritonitis,nearly doubling
same,survival following peritonitis and polymicrobial sepsis,"[3]; rat, in vivo",significantly improve survival; also recorded: doubling of survival
same,HSP 72 content (western blot) vs cells not receiving GLN,[4]; 10 mM GLN,significant increase
same,return of contractile function following I/R injury,[4]; 10 mM GLN,significantly enhanced
same,cell death from ischemia/reperfusion,"[4]; 10 mM GLN one hour before and throughout ischemia and reperfusion, control 48%",22%
same,total ATP content following I/R injury,"[5]; 0.52 g/kg GLN 18 hours prior, vs control",improved
same,accumulation of myocardial lactate following I/R injury,[5]; GLN 18 hours prior,significant decrease; also recorded: decreased
same,myocardial tissue content of glutamine and glucose following I/R injury versus LR control,"[5]; GLN 18 hours prior, 1H-MRS",enhanced
same,myocardial tissue creatine/phosphocreatine content following I/R injury,"[5]; GLN 18 hours prior, 1H-MRS",enhanced
same,myocardial tissue reduced glutathione content following I/R injury,"[5]; GLN 18 hours prior, 1H-MRS",marked enhancement; also recorded: improved
same,post-ischemic glutamate levels versus pre-ischemic levels,"[5]; GLN 18 hours prior, 1H-MRS",no decrease
same,myocardial NAD(+)/NADH content following I/R injury,"[5]; GLN 18 hours prior, MRS",significant preservation; also recorded: improved
same,reduction of the increase in tissue lactate versus control animals,"[5]; GLN 18 hours prior, post I/R, 1H-MRS",> 55%
same,level of infection,[6],lower level of infection
same,onset of ST depression,[7],significant delay
